Data published in US20060171912A1, “Diiodomethyl-p-tolylsulfone as a particulate dispersion in a liquid solvent” (priority 2005, published 2006).
Like-named read-outs stand apart in the source and are kept apart here.

Legend:
[1] = tested on: Malassezia furfur (ATCC 14521); test: Minimum Inhibitory Concentration (MIC) agar dilution test; format: cell-based; conditions: for MIC: M. furfur, mDixon agar, 30°, 4-5 days; for Retained Activity: dispersed particle form (in water) vs. dissolved in an effective solvent (DMSO)
Procedure: ^1The Minimum Inhibitory Concentration is indicative of anti-fungal efficacy. Generally, the lower the value of the composition, the better its anti-fungal efficacy, due to increased inherent ability of the anti-dandruff agent to inhibit the growth of microorganisms.
Malassezia furfur was grown in a flask containing mDixon medium (see E. Gueho, et al. Antoinie Leeuwenhoek (1996), no. 69, 337-55, which description is incorporated by reference herein). Dilutions of solubilized anti-microbial active were then added to test tubes containing molten mDixon agar. M. furfur inoculum was added to each tube of molten agar, the tube vortexed, and the contents poured into separate sterile petri dishes. […] The lowest tested dilution of anti-microbial active that yields no growth is defined as the Minimal Inhibitory Concentration (MIC).
Experimental Procedure • 1) Malassezia furfur was grown in a 125 ml Erlenmeyer flask containing 50 ml “mDIXON” medium at 200 rpm and 30° C. until turbid. • 2) Selected dilutions were prepared using an appropriate dilution series, of the anti-microbial active or combination in solvent, which allowed the sample active to be solubilized prior to addition to the final test agar. For each concentration of the ZPT samples, the solvent was “DMSO”; for other samples, the solvent was water or “DMSO” or other suitable solvent. • 3) 0.25 ml dilutions of anti-microbial active were added to test tubes containing 9.5 ml molten “mDIXON” agar (held at 45° C. in a water bath). • 4) 0.25 M. furfur inoculum (adjusted to 5×10^5 cfu/ml by direct count) was added to each test tube of molten agar. • 5) Each tube was vortexed, and the contents poured into separate petri dishes. • 6) After the agar solidified, the plates inverted and incubated at 30° for 4-5 days. • 7) The plates were then observed for visible M. furfur growth. Particle Size Determination Method

[2] = cited from earlier work

Cc1ccc(S(=O)(=O)C(I)I)cc1 [diiodomethyl-p-tolylsulfone, Diiodomethyl-p-tolylsulfone]
MIC ([1]; Dispersed in Water): 2.0 ppm | MIC ([1]; Malassezia furfur, ATCC14521, Dissolved in DMSO, read-out: MIC): 2 µg/mL | Retained Activity [1]: about 100% | Retained Activity ([1]; listed as AMICAL 48): 100% | Retained Activity ([1]; listed as Diiodomethyl-p-tolylsulfone): 100% | water solubility [2]: less than 5 ppm
